Measurements as given in ChEMBL document CHEMBL4020749, “Phenanthridin-6-one derivatives as the first class of non-steroidal pharmacological chaperones for Niemann-Pick disease type C1 protein” (Bioorg Med Chem Lett, 2017).
The source made the active and inactive calls. The rule behind the calls is not given here.

Tests used:
[1] = test system: T1, NPC intracellular cholesterol transporter 1 (Homo sapiens), O15118 [I1061T]; assay: Chaperone activity at FLAG/GFP-tagged NPC1 I1061T mutant (unknown origin) expressed in HEK293 cells assessed as increase in localization of protein mutant in late endosomes at 1 uM after 24 hrs by Hoechst 33342 staining based fluorescence microscopic analysis; assay type: cell-based
T1 sequence (whole entry): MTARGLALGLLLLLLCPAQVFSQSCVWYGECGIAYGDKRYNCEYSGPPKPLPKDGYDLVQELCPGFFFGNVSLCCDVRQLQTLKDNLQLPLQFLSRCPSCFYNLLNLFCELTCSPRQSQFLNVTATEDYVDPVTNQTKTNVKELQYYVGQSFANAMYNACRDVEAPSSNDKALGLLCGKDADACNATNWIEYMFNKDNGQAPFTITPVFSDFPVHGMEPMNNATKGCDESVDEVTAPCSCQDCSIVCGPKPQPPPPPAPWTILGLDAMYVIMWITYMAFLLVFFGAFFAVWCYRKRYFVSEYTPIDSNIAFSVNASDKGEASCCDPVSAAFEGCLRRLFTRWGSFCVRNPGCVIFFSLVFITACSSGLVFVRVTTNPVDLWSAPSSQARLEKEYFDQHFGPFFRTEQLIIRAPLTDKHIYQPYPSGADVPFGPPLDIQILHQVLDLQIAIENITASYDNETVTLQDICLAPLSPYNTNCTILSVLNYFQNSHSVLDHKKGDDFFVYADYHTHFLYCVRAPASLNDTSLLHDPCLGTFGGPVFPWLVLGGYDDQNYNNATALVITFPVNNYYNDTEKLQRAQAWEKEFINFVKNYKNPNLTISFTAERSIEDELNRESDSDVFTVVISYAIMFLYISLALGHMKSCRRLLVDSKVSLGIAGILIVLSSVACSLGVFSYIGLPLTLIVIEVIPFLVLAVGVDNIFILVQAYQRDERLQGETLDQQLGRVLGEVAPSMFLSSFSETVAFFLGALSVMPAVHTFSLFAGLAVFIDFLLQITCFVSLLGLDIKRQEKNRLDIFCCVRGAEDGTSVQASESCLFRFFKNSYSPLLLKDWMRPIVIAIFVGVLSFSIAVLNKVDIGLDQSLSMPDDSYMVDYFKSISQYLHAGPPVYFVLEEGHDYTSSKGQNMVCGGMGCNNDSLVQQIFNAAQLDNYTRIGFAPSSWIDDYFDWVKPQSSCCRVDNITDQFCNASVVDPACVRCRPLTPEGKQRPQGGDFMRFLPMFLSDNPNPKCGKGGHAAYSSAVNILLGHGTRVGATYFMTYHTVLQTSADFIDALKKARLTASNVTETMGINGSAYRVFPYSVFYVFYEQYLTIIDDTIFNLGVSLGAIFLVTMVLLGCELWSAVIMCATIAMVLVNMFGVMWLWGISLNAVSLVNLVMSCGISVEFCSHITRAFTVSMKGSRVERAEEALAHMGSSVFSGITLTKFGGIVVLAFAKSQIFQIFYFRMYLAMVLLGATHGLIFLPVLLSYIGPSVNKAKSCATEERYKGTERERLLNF

[2] = biological target: NPC intracellular cholesterol transporter 1 (Homo sapiens, UniProt O15118, I1061T); assay: (§1) Chaperone activity at FLAG/GFP-tagged NPC1 I1061T mutant (unknown origin) expressed in HEK293 cells assessed as increase in localization of protein mutant in late endosomes after 24 hrs by Hoechst 33342 staining based fluorescence microscopic analysis; assay type: cell-based
[3] = test system: T1, NPC intracellular cholesterol transporter 1 (Homo sapiens), O15118 [I1061T]; assay: Chaperone activity at FLAG/GFP-tagged NPC1 I1061T mutant (unknown origin) expressed in HEK293 cells assessed as increase in localization of protein mutant in late endosomes at 10 uM after 24 hrs by Hoechst 33342 staining based fluorescence microscopic analysis; assay type: cell-based
[4] = Solubility of the compound in DMEM medium at 30 uM; assay type: physicochemical
[5] = Solubility of the compound in DMEM medium at 10 uM; assay type: physicochemical
[6] = test system: T1, NPC intracellular cholesterol transporter 1 (Homo sapiens), O15118 [I1061T]; assay: Chaperone activity at FLAG/GFP-tagged NPC1 I1061T mutant (unknown origin) expressed in HEK293 cells assessed as increase in localization of protein mutant in late endosomes at 30 uM after 24 hrs by Hoechst 33342 staining based fluorescence microscopic analysis; assay type: cell-based
HEK293 [7] = assay: Chaperone activity at FLAG/GFP-tagged human NPC1L1 L1072T/I1168T double mutant expressed in HEK293 cells assessed as localization of protein mutant in plasma membrane at 3 uM after 24 hrs fluorescence microscopic analysis; assay type: cell-based
[8] = test system: T1, NPC intracellular cholesterol transporter 1 (Homo sapiens), O15118 [I1061T]; assay: Stabilization of FLAG/GFP-tagged NPC1 I1061T mutant (unknown origin) expressed in HEK293 cells assessed as up regulation of NPC1 I1061T mutant expression after 24 hrs by Hoechst 33342 staining based fluorescence microscopic analysis; assay type: cell-based
HEK293 [9] = assay: Stabilization of FLAG/GFP-tagged human NPC1L1 L1072T/I1168T double mutant expressed in HEK293 cells assessed as up regulation of NPC1L1 L1072T/I1168T double mutant expression at 3 to 30 uM after 24 hrs fluorescence microscopic analysis; assay type: cell-based
[10] = test system: T1, NPC intracellular cholesterol transporter 1 (Homo sapiens), O15118 [I1061T]; assay: as §1; assay type: cell-based
HEK293 [11] = assay: Chaperone activity at FLAG/GFP-tagged human NPC1L1 L1072T/I1168T double mutant expressed in HEK293 cells assessed as localization of protein mutant in plasma membrane at 10 uM after 24 hrs fluorescence microscopic analysis; assay type: cell-based

SMILES	EC50 ([2]; read-out: EC50) [µM]	Activity [6]	also measured
CC(C)CCC[C@@H](C)[C@H]1CC[C@H]2[C@@H]3C[C@@H](O)[C@@]4(O)C[C@@H](OCC(=O)N5CCOCC5)CC[C@]4(C)[C@H]3CC[C@]12C	0.15		Activity [1]: Active
CCCCn1c(=O)c2ccccc2c2cc(CO)ccc21	> 30		
CCCCn1c(=O)c2c(c3cc(C(N)=O)ccc31)CCCCCC2			Activity [3]: inactive; solubility [4]: Insoluble
CCCCCn1c(=O)c2ccccc2c2c(C(N)=O)cccc21			solubility [5]: Insoluble; EC50 [2]: Not Active
CCCCn1c(=O)c2ccccc2c2cc(C(F)(F)F)ccc21		inactive	
CCCCCn1c(=O)c2ccccc2c2ccc(C(N)=O)cc21			solubility [5]: Insoluble; EC50 [2]: Not Active
CCCCn1c(=O)c2ccccc2c2cc(NC(N)=O)ccc21		inactive	
CCCCn1c(=O)c2ccccc2c2cc(C(=O)O)ccc21		inactive	
C[C@H](CCC(=O)N(C)C)[C@H]1CC[C@H]2[C@@H]3CC=C4C[C@@H](OC(=O)N(CCO)CCO)CC[C@]4(C)[C@H]3CC[C@]12C			Activity (HEK293 [7]): Active
NC(=O)c1ccc2c(c1)c1ccccc1c(=O)n2CC1CCCCC1	3.6		solubility [4]: Insoluble
CCCCn1c(=O)c2ccccc2c2cc(OC(=O)N3CCOCC3)ccc21		inactive	
CCCCn1c(=O)c2ccccc2c2cc(C(=O)NC(C)(C)C)ccc21		inactive	
CCCCn1c(=O)c2ccccc2c2cc(C(=O)N3CCOCC3)ccc21		inactive	
CCn1c(=O)c2ccccc2c2cc(C(N)=O)ccc21	> 30		
Cn1c(=O)c2ccccc2c2cc(C(N)=O)ccc21	> 30		
CCCCn1c(=O)c2ccccc2c2cc(C(=O)NC(C)C)ccc21		inactive	
CC(C)n1c(=O)c2ccccc2c2cc(C(N)=O)ccc21			EC50 [2]: Not Active
CCCCn1c(=O)c2c(c3cc(C(N)=O)ccc31)CCCCC2	13		
CCCCn1c(=O)c2ccccc2c2cc(F)ccc21		inactive	
CCCCn1c(=O)c2ccccc2c2cc(C(=O)NCc3ccccc3)ccc21		inactive	

SMILES	EC50 ([2]; read-out: EC50) [µM]	Activity [6]	also measured
CCCCn1c(=O)c2ccccc2c2cc(C(=O)N3CCCC3)ccc21		inactive	
CCCCn1c(=O)c2c(c3cc(C(N)=O)ccc31)CCC2		inactive	
O=S(=O)(c1ccccc1)N(CC(F)(F)F)c1ccc(C(O)(C(F)(F)F)C(F)(F)F)cc1		inactive	
CCCCn1c(=O)c2ccccc2c2cc(N)ccc21		inactive	
CCCCN1C(=O)c2ccccc2Oc2cc(C(N)=O)ccc21		inactive	
CCCCn1c(=O)c2ccccc2c2cc(C(=O)N3CCCCC3)ccc21		inactive	
CCCn1c(=O)c2ccccc2c2cc(C(N)=O)ccc21	19		
CCCCn1c(=O)c2ccccc2c2cc(C(=O)N(C)C)ccc21	> 30		
CCCCn1c(=O)c2ccccc2c2cc(O)ccc21	> 30		
CCCCn1c(=O)c2ccccc2c2cc(NS(C)(=O)=O)ccc21	14		
C[Si](C)(C)CCOCn1c(=O)c2ccccc2c2cc(C(N)=O)ccc21	16		
CCCCCCn1c(=O)c2ccccc2c2cc(C(N)=O)ccc21	> 3		solubility [5]: Insoluble
C=CCn1c(=O)c2ccccc2c2cc(C(N)=O)ccc21	> 30		
CCCCn1c(=O)c2ccccc2c2cc(C(=O)NC3CCCCC3)ccc21		inactive	
CCCCn1c(=O)c2ccccc2c2cc(C(=O)N(CC)CC)ccc21		inactive	
CCCCn1c(=O)c2ccccc2c2cc(C(N)=O)ccc21	11		
CCCCCn1c(=O)c2ccccc2c2cc(C(N)=O)ccc21	4.2		Activity [8]: Dose-dependent effect; Activity (HEK293 [9]): inactive; Activity [10]: Dose-dependent effect; Activity (HEK293 [11]): inactive
CCCCn1c(=O)c2c(c3cc(C(N)=O)ccc31)CCCC2	30		
CCCC(=O)N1CC2=C(CCCC2)c2cc(C(N)=O)ccc21		inactive	
CCCCn1c(=O)c2ccccc2c2cc(C(=O)NC)ccc21	> 30		

SMILES	EC50 ([2]; read-out: EC50) [µM]	Activity [6]	also measured
CCCCCCCn1c(=O)c2ccccc2c2cc(C(N)=O)ccc21	> 3		solubility [5]: Insoluble
CCCCn1c(=O)c2ccccc2c2cc(C(C)O)ccc21 (stereo not given)	> 30		
CCCCn1c(=O)c2ccccc2c2cc(C(=O)NC3CC3)ccc21		inactive	
CCCCn1c(=O)c2ccccc2c2cc(C)ccc21		inactive	
NC(=O)c1ccc2c(c1)c1ccccc1c(=O)n2CCO			EC50 [2]: Not Active
CCCCn1c(=O)c2ccccc2c2cc(C(=O)NC3CCCC3)ccc21		inactive	
CCCCn1c(=O)c2ccccc2c2cc(C(O)(C(F)(F)F)C(F)(F)F)ccc21		inactive	
CCCCn1c(=O)c2ccccc2c2cc(C(C)=O)ccc21	> 30		
CCCCn1c(=O)c2ccccc2c2cc(N(C)C(C)=O)ccc21		inactive	
CCCCn1c(=O)c2ccccc2c2ccccc21		inactive	
O=C(O)Cc1cccc(OCCCN(Cc2cccc(C(F)(F)F)c2Cl)CC(c2ccccc2)c2ccccc2)c1		inactive	
CCCCNC(=O)c1ccccc1-c1cccc(C(N)=O)c1		inactive	
CCCCN1C(=O)CCc2cc(C(N)=O)ccc21		inactive	
CCCCCn1c(=O)c2ccccc2c2cccc(C(N)=O)c21			solubility [4]: Insoluble; EC50 [2]: Not Active
COCCn1c(=O)c2ccccc2c2cc(C(N)=O)ccc21			EC50 [2]: Not Active
CCCCn1c(=O)c2ccccc2c2cc(NC(=O)C(F)(F)F)ccc21		inactive	
CCCCn1c(=O)c2ccccc2c2cc(NC(C)=O)ccc21	14		
CCCCn1c(=O)c2ccccc2c2cc(C(=O)N(CCO)CCO)ccc21	> 30		
